≈ marks a conversion by molar mass, not a printed value.

In data set [1] the test system is Pseudoperonospora cubensis (PSPECU). Briefly: Cucumber downy mildew foliar protectant test. It counts as in vivo. Conditions: 200 ppm foliar, inoculated one day after treatment, read-out: Activity against fungal diseases PSPECU. In a few lines:
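Cucumber seedlings, first true leaf 20-80% expanded, were sprayed to wetness with formulated compound and inoculated next day with aqueous sporangia suspension. Severity was converted to percent control versus untreated inoculated plants: ***=80-100%, **=50-79%, *=0-49%.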

Data set [2] relates to Puccinia recondita tritici (PUCCRT). Briefly: Leaf rust of wheat foliar protectant test. It counts as in vivo. Conditions: 200 ppm foliar, inoculated one day after treatment, read-out: Activity against fungal diseases PUCCRT. In a few lines: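 Wheat seedlings (3–8 per pot) were sprayed to wet with formulated compound and inoculated the next day with an aqueous Puccinia recondita tritici spore suspension. Severity was converted to % control versus untreated inoculated plants and rated *** 80–100%, ** 50–79%, * 0–49%.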

The test system of data set [3] is Magnaporthe grisea = Pyricularia oryzae (PYRIOR). Briefly: whole plant or invertebrate. Type of data set: in vivo. To be noted: foliar, read-out: Activity against fungal diseases PYRIOR.
Data set [4] has as its system Septoria tritici (SEPTTR). Briefly: Septoria blotch of wheat foliar protectant test. Type of data set: in vivo. To be noted: Zymoseptoria tritici; 200 ppm foliar, inoculated one day after treatment; read-out: Activity against fungal diseases SEPTTR. In a few lines: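 Wheat seedlings (3-10 per pot) were sprayed to wet with formulated compound and inoculated next day with Septoria tritici spores. Plants then had 1 day in a dark dew chamber and 3 days in a lighted one before greenhouse incubation. Severity versus untreated inoculated plants gave percent control, scored *** 80-100%, ** 50-79%, * 0-49%.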

Data set [5] concerns Caenorhabditis elegans. Conditions: 10 micrograms per milliliter agar, 24 h at 20° C.
Description: The activity of the compounds against Caenorhabditis elegans was determined by dissolving compounds in DMSO, then applying them to petri dishes containing Nematode Growth Medium agar to a final concentration of 10 μg compound per milliliter agar. Escherichia coli bacteria were grown on the plates to provide a food source for the larvae of Caenorhabditis elegans. The bacteria were heat-killed at 65° C. before compounds were added to the plates.
The plates with compound and heat-killed bacteria were infested with 10 microliter drops containing eggs from wild-type Caenorhabditis elegans worms. Adult worms were dissolved in KOH and bleach and washed in Ringers solution to generate the egg suspension. Each compound was screened with approximately 400 eggs, divided between two petri dishes. Egg hatching was evaluated after 24 h at 20° C. Mortality was averaged over the two plates.
The subject of data set [6] is Septoria tritici (SEPTTR). Briefly: Synergy with pyraclostrobin or epoxiconazole against Septoria blotch. Conditions: alone.
Description: (§1) The compound was evaluated in mixtures with pyraclostrobin, or epoxiconazole for protectant and curative activity against wheat leaf rust (Puccinia triticina, PUCCRT), and Septoria blotch (Septoria tritici, SEPTTR).
(§2) The compound was formulated at six rates (8.1, 2.7, 0.9, 0.3, 0.1, 0.03 ppm) and applied to wheat plants alone and in all combinations of it with pyraclostrobin or epoxiconazole using the methods described in section “Fungicidal Activity” above. Plants were inoculated three days before treatment (3DC) or one day after treatment (1DP), incubated in a greenhouse until disease was expressed, and visually rated (reported as % DC Obs) as described above. The expected control was calculated using the Colby equation (Colby, S. R. Calculation of the synergistic and antagonistic response of herbicide combinations. Weeds 1967 15, 20-22.).
(§3) The following equation was used to calculate the expected activity of mixtures containing two active ingredients, A and B: Expected=A+B−(A×B/100)
(§4) A=observed efficacy of active ingredient A at the same concentration as used in the mixture
(§5) B=observed efficacy of active ingredient B at the same concentration as used in the mixture
The test system of data set [7] is Puccinia triticina (PUCCRT). Briefly: Synergy with pyraclostrobin or epoxiconazole against wheat leaf rust. To be noted: alone.
Description: as §1, §2, §3, §4, §5
Data set [8] can be described thus: Mouse oral exposure (gavage), 14 days. Details: species or system mice. Conditions: female, CD-1/Swiss derived albino, in vivo, 5% w/v in 0.5% carboxymethylcellulose, monitored 14 days. Here is the method: The effect on mice of oral exposure was determined for compounds differing only in the number of fluorine substituents on the quinazoline ring, as shown in Table 5. Three CD-1/Swiss derived albino female mice were administered compounds by gavage as a 5% w/v mixture in 0.5% carboxymethylcellulose solution. The animals were monitored for 14 days.

The subject of data set [9] is Colorado Potato Beetle (Leptinotarsa decemlineata, LPTNDE). Nature of the data set: Colorado Potato Beetle larvae on sprayed tomato leaves. Type of data set: in vivo. To be noted: foliar, 72 h, L2 larvae on sprayed tomato foliage, mortality after three days. Here is the method:
Formulated test compounds were diluted and sprayed onto leaves of tomato plants. When dry, plant foliage was removed from the plant and placed in 8-well agar trays. Five L2 Colorado potato beetle larvae were placed in each well, and the trays were sealed and incubated at 26° C. Mortality was evaluated after three days.

Turning to `Fc1cc(Oc2cc(C(F)(F)F)ccn2)ccc1CCNc1ncnc2c(F)ccc(F)c12` [Compound 76], the pest or weed control at 200 ppm in data set [1], in data set [2], in data set [3] and in data set [4] was 80 to 100% in each case. Further, the Percent mortality in data set [5] was 100%.

With `Fc1ccc([C@]2(Cn3cncn3)O[C@H]2c2ccccc2Cl)cc1` (racemic) [epoxiconazole], the “% DC Obs” value is 36% in data set [6] (1DP SEPTTR, 0.3 ppm); 35% in data set [6] (3DC SEPTTR, 0.3 ppm); 0% in data set [7] (1DP PUCCRT, 0.1 ppm); 13% in data set [7] (3DC PUCCRT, 0.1 ppm).

For `Fc1ccc(F)c2c(NCCc3ccc(Oc4ccnc(C(F)(F)F)c4)cc3)ncnc12` [Example 11, (5,8-Difluoroquinazolin-4-yl)-{2-[4-(2-trifluoromethylpyridin-4-yloxy)-phenyl]-ethyl}-amine], the melting point (in general, the temperature, or range, at which the solid turns liquid) lay within 95 to 96 °C.

Consider `COc1ccc(CCNc2ncnc3c(F)ccc(F)c23)c(C)c1` [Compound 42], for which the pest or weed control at 200 ppm in [1], in data set [2], in data set [3] and in data set [4] was 80 to 100% each time. For the same molecule, the Percent mortality in data set [5] came out at 6%.

As to `N#Cc1cc(Cl)ncc1Oc1ccc(CCNc2ncnc3c(F)ccc(F)c23)cc1` [Compound 125], the pest or weed control at 200 ppm in data set [1], in data set [2], in [3] and in [4] was 80 to 100% each time. For the same molecule, in data set [5], the Percent mortality is recorded as 0%.

Turning to `Fc1ccc(F)c2c(NCCc3ccc(Oc4cc(C(F)(F)F)ccn4)cc3)ncnc12` [Compound 6], the pest or weed control at 200 ppm in data set [1], in [2], in [3] and in [4] was 80 to 100% throughout. In data set [8], the LD50 (commonly the dose expected to kill half of the subjects tested) at 14 days lay within 100 to 500 mg/kg. Further, in data set [9], the LC90 lay within 12.5 to 50 µg/mL (≈ 28 to 112 µM).

As to ivermectin [reference compound], the Percent mortality in data set [5] is 95%.

On to `Fc1cc(F)c2ncnc(NCCc3ccc(Oc4cc(C(F)(F)F)ccn4)cc3)c2c1F` [Compound 31], for which the pest or weed control at 200 ppm in data set [1], in [2], in data set [3] and in [4] was 80 to 100% each time. This molecule gave an LD50 at 14 days in [8] of over 500 mg/kg. The molecule further gave an LC90 in data set [9] of 50 to 200 µg/mL (≈ 108 to 431 µM).

For the molecule `Fc1ccc(F)c2c(NCCc3ccc(Oc4ccc(C(F)(F)F)cn4)cc3)ncnc12` [Compound 1], the pest or weed control at 200 ppm in data set [1], in data set [2], in data set [3] and in data set [4] was 80 to 100% in each case. The same molecule returned an LC90 in data set [9] of 0.49 µg/mL (≈ 1.1 µM).

As to `COc1cc(CCNc2ncnc3c(F)ccc(F)c23)ccc1Oc1cc(C(F)(F)F)ccn1` [Compound 15], the pest or weed control at 200 ppm in data set [1], in data set [2], in data set [3] and in data set [4] was 80 to 100% each time. The “% DC Obs” value in [6] (1DP SEPTTR, 2.7 ppm) worked out at 31%; in [6] (3DC SEPTTR, 0.9 ppm), 22%; in data set [7] (1DP PUCCRT, 0.3 ppm), 33%; in data set [7] (3DC PUCCRT, 0.3 ppm), 6%; in [7] (3DC PUCCRT, 0.9 ppm), 52%.

Turning to `[O-][n+]1ccc(C(F)(F)F)c(Oc2ccc(CCNc3ncnc4c(F)ccc(F)c34)cc2)c1` [Compound 115], the pest or weed control at 200 ppm in data set [1], in data set [2], in data set [3] and in data set [4] was 80 to 100% each time. Besides, the Percent mortality in [5] amounted to 100%.

With `Fc1ccc(F)c2c(NCCc3ccc(Oc4nccc(C(F)(F)F)n4)cc3)ncnc12` [Compound 3], the pest or weed control at 200 ppm lay within 80 to 100% in [1], 80 to 100% in data set [2], 50 to 79% in data set [3] and 80 to 100% in [4]. The molecule also returned a Percent mortality in data set [5] of 100%.

In data set [8], `Fc1cccc2c(NCCc3ccc(Oc4cc(C(F)(F)F)ccn4)cc3)ncnc12` [drawing 198, reference compound] showed an LD50 at 14 days of under 100 mg/kg.

On to `COC(=O)N(OC)c1ccccc1COc1ccn(-c2ccc(Cl)cc2)n1` [pyraclostrobin], for which the “% DC Obs” value was 49% in [6] (1DP SEPTTR, 0.3 ppm); 14% in data set [6] (3DC SEPTTR, 0.1 ppm); 8% in data set [7] (1DP PUCCRT, 0.1 ppm); 4% in data set [7] (3DC PUCCRT, 0.3 ppm).

Consider `Fc1cc(F)c2ncnc(NCCc3ccc(Oc4cnccc4C(F)(F)F)c(Cl)c3)c2c1F` [Compound 93], for which the pest or weed control at 200 ppm in data set [2], in [3] and in [4] was 80 to 100% in each case. Moreover, in [5], the Percent mortality was 100%.

(Values after patent publication US9000162B2, “5,8-difluoro-4-(2-(4-(heteroaryloxy)-phenyl)ethylamino)quinazolines and their use as agrochemicals” (Dow AgroSciences LLC, priority 2008, dated 2015).)
